Assay results: patent publication US8188064B2, “Vitamin D analogs for obesity prevention and treatment” (Wisconsin Alumni Research Foundation, priority 2003, dated 2012)
pEC50: −log10 of the molar value. “Also recorded” adds a separate entry of the source.

How the values were obtained:
[1] = Bone calcium mobilization (serum calcium on low calcium diet); type: in vivo, rat; conditions: for bone calcium mobilization activity: result in words, vitamin D deficient rat model, compared to 1α,25(OH)2D3
Procedure: (§1) Male, weanling Sprague-Dawley rats were placed on Diet 11 (0.47% Ca) diet+AEK for one week followed by Diet 11 (0.02% Ca)+AEK for 3 weeks. The rats were then switched to a diet containing 0.47% Ca for one week followed by two weeks on a diet containing 0.02% Ca. Dose administration began during the last week on 0.02% calcium diet. Four consecutive ip doses were given approximately 24 hours apart. Twenty-four hours after the last dose, blood was collected from the severed neck and the concentration of serum calcium determined as a measure of bone calcium mobilization. The first 10 cm of the intestine was also collected for intestinal calcium transport analysis using the everted gut sac method.

[2] = molecular target: T1, full-length recombinant rat vitamin D receptor (Rattus norvegicus, UniProt P13053); assay: Vitamin D receptor binding (competition with 3H-1,25(OH)2D3); conditions: for binding to the vitamin D receptor, compared to 1α,25(OH)2D3: result in words, competition for tritiated hormone binding
T1 construct: Full-length recombinant rat receptor was expressed in E. coli; histidine tag (C); made in house; host or cells: E. coli BL21(DE3) Codon Plus RIL
T1 sequence (P13053 1-423): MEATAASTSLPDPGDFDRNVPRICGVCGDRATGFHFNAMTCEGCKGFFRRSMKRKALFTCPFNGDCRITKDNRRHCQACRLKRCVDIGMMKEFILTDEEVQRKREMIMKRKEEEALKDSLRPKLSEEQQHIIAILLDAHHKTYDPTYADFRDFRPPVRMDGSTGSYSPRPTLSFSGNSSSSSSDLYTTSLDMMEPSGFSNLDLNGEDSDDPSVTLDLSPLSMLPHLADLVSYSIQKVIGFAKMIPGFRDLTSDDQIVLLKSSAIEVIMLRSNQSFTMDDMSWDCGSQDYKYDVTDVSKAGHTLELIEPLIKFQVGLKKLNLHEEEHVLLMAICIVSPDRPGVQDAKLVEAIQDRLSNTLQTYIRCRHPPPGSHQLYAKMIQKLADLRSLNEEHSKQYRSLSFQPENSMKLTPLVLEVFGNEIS
Procedure: Full-length recombinant rat receptor was expressed in E. coli BL21(DE3) Codon Plus RIL cells and purified to homogeneity using two different column chromatography systems. The first system was a nickel affinity resin that utilizes the C-terminal histidine tag on this protein. The protein that was eluted from this resin was further purified using ion exchange chromatography (S-Sepharose Fast Flow). Aliquots of the purified protein were quick frozen in liquid nitrogen and stored at −80° C. until use. For use in binding assays, the protein was diluted in TEDK50 (50 mM Tris, 1.5 mM EDTA, pH 7.4, 5 mM DTT, 150 mM KCl) with 0.1% Chaps detergent. The receptor protein and ligand concentration was optimized such that no more than 20% of the added radiolabeled ligand was bound to the receptor.
Unlabeled ligands were dissolved in ethanol and the concentrations determined using UV spectrophotometry (1,25(OH)2D3: molar extinction coefficient=18,200 and λmax=265 nm; Analogs: molar extinction coefficient=42,000 and λmax=252 nm). Radiolabeled ligand (^3H-1,25(OH)2D3, ˜159 Ci/mmole) was added in ethanol at a final concentration of 1 nM.
Radiolabeled and unlabeled ligands were added to 100 mcl of the diluted protein at a final ethanol concentration of ≦10%, mixed and incubated overnight on ice to reach binding equilibrium. The following day, 100 mcl of hydroxylapatite slurry (50%) was added to each tube and mixed at 10-minute intervals for 30 minutes. The hydroxylapaptite was collected by centrifugation and then washed three times with Tris-EDTA buffer (50 mM Tris, 1.5 mM EDTA, pH 7.4) containing 0.5% Titron X-100. After the final wash, the pellets were transferred to scintillation vials containing 4 ml of Biosafe II scintillation cocktail, mixed and placed in a scintillation counter. Total binding was determined from the tubes containing only radiolabeled ligand.

[3] = test system: parathyroid hormone (PTH); assay: PTH suppression (serum PTH); type: in vivo, rat; conditions: result in words; normal/adult rats
Procedure: Adult, female Sprague-Dawley rats were obtained from Harlan (Madison, Wis.).
Upon receipt, the animals were identified by individual tail marks. Animals were housed in suspended, stainless steel, wire-bottom cages. Each cage contained one animal. The animal rooms were maintained at a temperature of 68 to 72° F. and a relative humidity of 25 to 75%. The holding rooms were set to provide 12 hours of light per day. Water and a purified rodent diet (Suda et al., Purified Rodent Diet-Diet 11) containing […] 0.3% phosphorus and fat soluble vitamins A, D, E and K were provided ad libitum.
Animals were randomly assigned to treatment groups (5 animals/group). All doses were administered intraperitoneally in 100 microliters of propylene glycol. Four to seven consecutive doses were given approximately 24 hours apart. Dosing was initiated after the animals had been allowed to acclimate for at least one week.
Both control and test articles were administered by intraperitoneal injection in 100 microliters for 4-7 consecutive days spaced approximately 24 hours apart. 1,25(OH)2D3 was given for 4 consecutive days, whereas, the test drugs were given for 7 consecutive days.
Twenty-four hours after the final dose, blood was collected from the tail artery and the concentration of bioactive serum PTH was measured using the rat BioActive Intact PTH ELISA Kit from Immutopics, Inc. (San Clemente, Calif.).

[4] = test system: 24-hydroxylase (24Ohase) gene promoter in ROS 17/2.8 (bone) cells; assay: In vitro transcription assay (luciferase reporter); type: cell-based; conditions: for transcriptional activity in bone cells, compared to 1α,25(OH)2D3: result in words
Procedure: Transcription activity was measured in ROS 17/2.8 (bone) cells that were stably transfected with a 24-hydroxylase (24Ohase) gene promoter upstream of a luciferase reporter gene (Arbour et al., 1998). Cells were given a range of doses. Sixteen hours after dosing the cells were harvested and luciferase activities were measured using a luminometer. RLU=relative luciferase units.

[5] = test system: Human promyelocytic leukemia (HL60) cells; assay: HL-60 differentiation (nitro blue tetrazolium reduction); type: cell-based
Procedure: The study drugs were dissolved in ethanol and the concentrations determined using UV spectrophotometry. Serial dilutions were prepared so that a range of drug concentrations could be tested without changing the final concentration of ethanol (≦0.2%) present in the cell cultures.
Human promyelocytic leukemia (HL60) cells were grown in RPMI-1640 medium containing 10% fetal bovine serum. The cells were incubated at 37° C. in the presence of 5% CO2.
HL60 cells were plated at 1.2×10^5 cells/ml. Eighteen hours after plating, cells in duplicate were treated with drug. Four days later, the cells were harvested and a nitro blue tetrazolium reduction assay was performed (Collins et al., 1979; J. Exp. Med. 149:969-974). The percentage of differentiated cells was determined by counting a total of 200 cells and recording the number that contained intracellular black-blue formazan deposits. Verification of differentiation to monocytic cells was determined by measuring phagocytic activity (data not shown).

[6] = Intestinal calcium transport (everted gut sac); type: in vivo; conditions: result in words, vitamin D deficient rat model, compared to 1α,25(OH)2D3
Procedure: as §1

SCD-1 mRNA = assay: Inhibition of SCD-1 mRNA induction in 3T3-L1 cells (RT-PCR); type: cell-based, murine; conditions: for inhibition of SCD-1 mRNA induction: result in words, MDI-treated 3T3-L1 cells
Source text: Chomczynski, P. et al., Anal. […] NO: 4)).

3T3-L1 cells = assay: Inhibition of 3T3-L1 differentiation into mature adipocytes (Oil-Red-O staining); type: cell-based, murine; conditions: for inhibition of differentiation of 3T3-L1 cells into mature adipocytes (Oil-Red-O staining): result in words, MDI-treated cells, staining at day 10
Procedure: Various 19-nor vitamin D analogs were or are tested and found to inhibit the differentiation of preadipocytes into mature adipocytes, to reduce body fat, to inhibit an increase in PPARγ, C/EBPα, and/or SCD-1 gene transcription and to be useful in treating and preventing obesity both in vivo and in vitro. The undifferentiated preadipocyte 3T3-L1 subline, a derivative of the original mouse fibroblast cell line, is one of the most accepted models for investigating the adipogenesis process and was used for the analysis. Two days after reaching confluence, 3T3-L1 cells can be induced to differentiate into adipocytes (see Mackall, J. C. et al. J. Biol. Chem., 251(20), 6462-6464 (1976)) with the addition of a cAMP phosphodiesterase inhibitor, dexamethasone (a glucocortoid), and insulin. […] The induction of PPARγ and C/EBPα is required for adipocyte differentiation. […] SCD-1 is an enzyme found in adipocytes that converts saturated fatty acids (C16 and C18) to their monounsaturated forms (C16:1 and C18:1). The deposition of triglyceride can also be detected as early as 3 days, and by the 7th to 14th days post-confluence, greater than 80% of the cells in the monolayer stain positively with Oil-red-O.

[7] = Hypercalcemia / serum calcium analysis; type: in vivo, rat
PPARγ2 mRNA = PPARγ2 mRNA induction by MDI in 3T3-L1 cells (RT-PCR); type: cell-based, murine; conditions: compound present at 1×10^−10 M
Procedure: RT-PCR was carried out as described above with 0.5 μM each primer, 2 mM MgCl2, and 1×SYBR Green master mix.

C/EBPα mRNA = C/EBPα mRNA induction by MDI in 3T3-L1 cells (RT-PCR); type: cell-based, murine; conditions: compound present at 1×10^−10 M
Procedure: Analysis of C/EBPα was determined by PCR using murine primers (upstream=CGA GTA GGG GGA GCA AAA A (SEQ ID NO: 7); downstream=GCA AAA AGC MG GGA TTA GGA G (SEQ ID NO: 8)). RT-PCR was carried out as described above with 0.5 μM each primer, 2 mM MgCl2, and 1×SYBR Green master mix. The murine C/EBPα primers have a 60° C. annealing temperature and a 12 second extension time.

Row | Structure (SMILES) | bone calcium mobilization activity [1] | suppression of parathyroid hormone (PTH) [3] | transcriptional activity in bone cells, compared to 1α,25(OH)2D3 [4] | differentiation of HL-60 cells, times less active than 1α,25(OH)2D3 [5] | intestinal calcium transport activity [6] | binding to the vitamin D receptor, compared to 1α,25(OH)2D3 [2] | inhibition of differentiation of 3T3-L1 cells into mature adipocytes (Oil-Red-O staining) (3T3-L1 cells) | other results
1 | C=C1[C@H](O)CC(=C/C=C2\CCC[C@]3(C)[C@@H](CCC)CC[C@@H]23)C[C@H]1O [19,21-dinor, 2-methylene-19,21-dinor-1α-hydroxybishomopregnacalciferol] | no calcemic activity | significant activity | active | about 15 times | no calcemic activity | – | – | vitamin D receptor binding, times less active than 1α,25-dihydroxyvitamin D3 ([2]; less active than 1α,25-dihydroxyvitamin D3): about 5 times
2 | C=C1[C@H](O)CC(=C/C=C2\CCC[C@]3(C)[C@@H]([C@H](C)CC)CC[C@@H]23)C[C@H]1O [(20R)2MbisP] | does not support | considerable activity | – | about 5 times | does not support | approximately equally effective | nearly equipotent | bone calcium mobilization activity ([1]; listed as (20R)2-MbisP): very little bone calcium mobilization activity; inhibition of SCD1 mRNA induction (SCD-1 mRNA; tested at 1×10^−8.5 M): active; inhibition of differentiation of MDI-treated 3T3-L1 cells (oil-red-O staining) (3T3-L1 cells; tested at 1×10^−8.5 M): active; transcription of reporter gene coupled to the CYP-24 promoter, times less active than 1α,25-(OH)2D3 ([4]; less active than 1α,25-(OH)2D3): about 5 times; intestinal calcium transport activity ([6]; listed as (20R)2-MbisP): less activity; hypercalcemia in adult rats ([7]; doses as high as 45 nmol/day): failed to cause hypercalcemia
3 | C=C1[C@H](O)CC(=C/C=C2\CCC[C@]3(C)[C@@H]([C@@H](C)CCCC(C)(C)O)CC[C@@H]23)C[C@H]1O [2-MD] | active | – | – | – | active | as well as the native hormone | highest activity; also recorded: so much greater; also recorded: inhibit | pEC50 (SCD-1 mRNA; Mus musculus, 3T3-L1, 96 h, SCD-1 mRNA at 4 days, read-out: EC50 for inhibition of murine 3T3-L1 expression of SCD-1 mRNA): ~11.54; times more potent than the native hormone calcitriol (SCD-1 mRNA; inhibition of 3T3-L1 differentiation (FIG. 2 and FIG. 3)): at least 70 times; PPARγ mRNA induction by MDI (PPARγ2 mRNA): prevented these mRNAs from being upregulated; also recorded: not induced; C/EBPα mRNA induction by MDI (C/EBPα mRNA): prevented these mRNAs from being upregulated; also recorded: not induced
4 | C=C1[C@H](O)CC(=C/C=C2\CCC[C@]3(C)[C@@H]([C@@H](C)CCC)CC[C@@H]23)C[C@H]1O [2MtrisP] | very little bone calcium mobilization activity | remarkably effective | within one order of magnitude | – | some ability to elevate intestinal calcium transport; also recorded: less activity | almost equal to the native hormone; also recorded: as or nearly effective as calcitriol | increased slightly | bone calcium mobilizing activity ([1]; very high dose of 2340 pmol/day): little bone calcium mobilizing activity; inhibition of SCD-1 mRNA induction (SCD-1 mRNA): increased slightly; inhibition of SCD-1 mRNA induction (SCD-1 mRNA; listed as (20S)2M-trisP): still possess activity; inhibition of differentiation of 3T3-L1 cells into mature adipocytes (Oil-Red-O staining) (3T3-L1 cells; listed as (20S)2M-trisP): still possess activity; differentiation of HL-60 cells, compared to 1α,25(OH)2D3 ([5]; result in words): equal in activity; serum calcium concentrations ([7]; adult rats, PTH suppression study): not raising serum calcium concentrations
